Data published in patent US20070281992A1, “COMBINATION OF GYRASE B INHIBITORS AND PROTEIN SYNTHESIS INHIBITORS AND USES THEREOF” (priority 2006, published 2007).
Read-outs that look alike come from different tables or passages of the source.

Experiments:
Format in all cases: cell-based
[1] = tested on: Staphylococcus aureus 0100 (ATCC 29213); assay: MIC assay, quality control strain S. aureus ATCC 29213; details: ATCC29213, S. aureus ATCC 29213, repeat runs 22FEB06-09MAR06, combinations at 2.5:1, read-out: Minimal Inhibitory Concentration, quality control
Protocol: (§1) Antibiotics: novobiocin, tetracycline, minocycline, oxacillin, and vancomycin were all purchased from Sigma-Aldrich. Linezolid was obtained from Pfizer, Inc. Novobiocin/tetracycline and novobiocin/minocycline were tested in a 2.5:1 ratio to mimic the serum levels. (Vavra, J. J., 1967, Development of resistance to novobiocin, tetracycline, and novobiocin-tetracycline combinations in Staphylococcus aureus populations, J. Bacteriol 93(3):801). Compounds were tested across a concentration range consisting of 11 two-fold serial dilutions of test agent.
(§2) Stock solutions were prepared in sterile deionized water; novobiocin stock concentration was 1600 μg/mL and all other drugs stock solutions were prepared at 640 μg/mL. The stock solutions were allowed to sit at room temperature for one hour to auto-sterilize prior to use in the test. All compounds were in solution in water. The control agent was vancomycin hydrochloride, Sigma Chemical Lot # 015K0825.
(§3) The test organisms for the assay were 52 MSSA, 52 MRSA, 8 VISA, 7 VISE, and 3 LRSA isolates. Quality control strains included Staphylococcus aureus 0100 (ATCC 29213) and Enterococcus faecalis (ATCC 29212).
(§4) The MIC assay was performed according to published NCCLS guidelines. (National Committee for Clinical Laboratory Standards, Methods for Dilution Antimicrobial Susceptibility Tests for Bacteria that Grow Aerobically; Approved Standard-Sixth Edition, NCCLS Document M7-A6 [ISBN 1-56238-486-4], NCCLS, 940 West Valley Road, Suite 1400, Wayne, Pa. 19087-1898 USA, 2003). The test medium was Mueller Hinton II Broth for all organisms.

[2] = tested on: Methicillin-Resistant Staphylococcus aureus Isolates; assay: MIC assay (NCCLS broth dilution), MRSA clinical isolates; details: for MIC: read-out: Minimal Inhibitory Concentration
Protocol: as §1, §2, §3, §4

[3] = tested on: Enterococcus faecalis (ATCC 29212); assay: MIC assay, quality control strain E. faecalis ATCC 29212; details: ATCC29212, E. faecalis ATCC 29212, repeat runs 22FEB06-09MAR06, combinations at 2.5:1, read-out: Minimal Inhibitory Concentration, quality control
Protocol: as §1, §2, §3, §4

[4] = Staphylococcus aureus, 52 MRSA isolates, combinations at 2.5:1, given as NB/partner

CN(C)c1ccc(O)c2c1C[C@H]1C[C@H]3[C@H](N(C)C)C(O)=C(C(N)=O)C(=O)[C@@]3(O)C(O)=C1C2=O [MI, minocycline]
MIC [1]: 0.12 µg/mL | MIC Range ([2]; 52 MRSA isolates, combinations at 2.5:1, given as NB/partner): .06 to .16 µg/mL | MIC ([2]; Staphylococcus aureus, MRSA isolate 757, 24FEB06): 8 µg/mL | MIC ([2]; Staphylococcus aureus, MRSA isolate 758, 03MAR06): 0.12 µg/mL | MIC ([2]; Staphylococcus aureus, MRSA isolate 758, 24FEB06): 0.12 µg/mL | MIC ([2]; Staphylococcus aureus, MRSA isolate 760, 03MAR06): 0.12 µg/mL | MIC ([2]; Staphylococcus aureus, MRSA isolate 760, 24FEB06): 0.12 µg/mL | MIC ([2]; Staphylococcus aureus, MRSA isolate 763, 22FEB06): 0.12 µg/mL | MIC ([2]; Staphylococcus aureus, MRSA isolate 765, 22FEB06): 0.06 µg/mL | MIC ([2]; Staphylococcus aureus, MRSA isolate 766, 22FEB06): 0.12 µg/mL | MIC ([2]; Staphylococcus aureus, MRSA isolate 767, 22FEB06): 0.12 µg/mL | MIC ([2]; Staphylococcus aureus, MRSA isolate 768, 22FEB06): 0.06 µg/mL | MIC ([2]; Staphylococcus aureus, MRSA isolate 769, 22FEB06): 0.12 µg/mL | MIC ([2]; Staphylococcus aureus, MRSA isolate 770, 22FEB06): 0.12 µg/mL | MIC ([2]; Staphylococcus aureus, MRSA isolate 771, 22FEB06): 0.12 µg/mL | MIC ([2]; Staphylococcus aureus, MRSA isolate 772, 22FEB06): 0.12 µg/mL | MIC ([2]; Staphylococcus aureus, MRSA isolate 773, 24FEB06): 0.12 µg/mL | MIC ([2]; Staphylococcus aureus, MRSA isolate 774, 24FEB06): 0.12 µg/mL | MIC ([2]; Staphylococcus aureus, MRSA isolate 775, 24FEB06): 0.12 µg/mL | MIC ([2]; Staphylococcus aureus, MRSA isolate 776, 24FEB06): 0.12 µg/mL | MIC ([2]; Staphylococcus aureus, MRSA isolate 777, 24FEB06): 0.12 µg/mL | MIC ([2]; Staphylococcus aureus, MRSA isolate 778, 24FEB06): 0.06 µg/mL | MIC ([2]; Staphylococcus aureus, MRSA isolate 886, 24FEB06): 0.12 µg/mL | MIC ([2]; Staphylococcus aureus, MRSA isolate 887, 24FEB06): 0.12 µg/mL | MIC ([2]; Staphylococcus aureus, MRSA isolate 888, 24FEB06): 0.12 µg/mL | MIC ([2]; Staphylococcus aureus, MRSA isolate 889, 24FEB06): 0.12 µg/mL | MIC ([2]; Staphylococcus aureus, MRSA isolate 1004, 24FEB06): 0.12 µg/mL | MIC ([2]; Staphylococcus aureus, MRSA isolate 1010, 22FEB06): 0.12 µg/mL | MIC ([2]; Staphylococcus aureus, MRSA isolate 1012, 22FEB06): 0.12 µg/mL | MIC ([2]; Staphylococcus aureus, MRSA isolate 1013, 22FEB06): 0.12 µg/mL | MIC ([2]; Staphylococcus aureus, MRSA isolate 1014, 22FEB06): 0.12 µg/mL | MIC ([2]; Staphylococcus aureus, MRSA isolate 1015, 22FEB06): 0.12 µg/mL | MIC ([2]; Staphylococcus aureus, MRSA isolate 1016, 22FEB06): 0.12 µg/mL | MIC ([2]; Staphylococcus aureus, MRSA isolate 1017, 22FEB06): 0.12 µg/mL | MIC ([2]; Staphylococcus aureus, MRSA isolate 1021, 22FEB06): 0.12 µg/mL | MIC ([2]; Staphylococcus aureus, MRSA isolate 1022, 22FEB06): 0.12 µg/mL | MIC ([2]; Staphylococcus aureus, MRSA isolate 1023, 22FEB06): 0.12 µg/mL | MIC ([2]; Staphylococcus aureus, MRSA isolate 1024, 22FEB06): 0.12 µg/mL | MIC ([2]; Staphylococcus aureus, MRSA isolate 1025, 22FEB06): 0.12 µg/mL | MIC ([2]; Staphylococcus aureus, MRSA isolate 1135, 22FEB06): 0.12 µg/mL | MIC ([2]; Staphylococcus aureus, MRSA isolate 1136, 22FEB06): 0.12 µg/mL | MIC ([2]; Staphylococcus aureus, MRSA isolate 1137, 22FEB06): 0.12 µg/mL | MIC ([2]; Staphylococcus aureus, MRSA isolate 1138, 22FEB06): 0.12 µg/mL | MIC ([2]; Staphylococcus aureus, MRSA isolate 1222, 03MAR06): 0.06 µg/mL | MIC ([2]; Staphylococcus aureus, MRSA isolate 1222, 24FEB06): 0.12 µg/mL | MIC ([2]; Staphylococcus aureus, MRSA isolate 1653, 03MAR06): 0.06 µg/mL | MIC ([2]; Staphylococcus aureus, MRSA isolate 1658, 03MAR06): 0.06 µg/mL | MIC ([2]; Staphylococcus aureus, MRSA isolate 1659, 03MAR06): 0.06 µg/mL | MIC ([2]; Staphylococcus aureus, MRSA isolate 1661, 03MAR06): 0.12 µg/mL | MIC ([2]; Staphylococcus aureus, MRSA isolate 1729, 03MAR06): 16 µg/mL | MIC ([2]; Staphylococcus aureus, MRSA isolate 1730, 24FEB06): 0.12 µg/mL | MIC ([2]; Staphylococcus aureus, MRSA isolate 2009, 24FEB06): 1 µg/mL | MIC ([2]; Staphylococcus aureus, MRSA isolate 2010, 24FEB06): 0.12 µg/mL | MIC ([2]; Staphylococcus aureus, MRSA isolate 2011, 24FEB06): 0.12 µg/mL | MIC50 [2, 4]: 0.12 µg/mL | MIC90 [2, 4]: 0.12 µg/mL | MIC [3]: 2 µg/mL
